IC50 data for 18 molecules are collected here from patent publication US8729087B2, “Compositions and methods for inhibition of the JAK pathway” (Rigel Pharmaceuticals, Inc., priority 2006, dated 2014).

The subject of experiment [1] is Ramos B-cell line stimulated with IL-4. The experiment in a line: Assay for Ramos B-Cell Line Stimulated with IL-4 (CD23 upregulation, FACS). Conditions: IL-4 50 units/mL, 20-24 hours, anti-CD23-PE staining, FACS, read-out: Example 2 (IC50, Ramos B-cell line stimulated with IL-4). The class given is cell-based, human. The text has this: One means of assaying for such inhibition is detection of the effect of the 2,4-pyrimidinediamine compounds on the upregulation of downstream gene products. In the Ramos/IL4 assay, B-cells are stimulated with the cytokine Interleukin-4 (IL-4) leading to the activation of the JAK/Stat pathway through phosphorylation of the JAK family kinases, JAK1 and JAK3, which in turn phosphorylate and activate the transcription factor Stat-6. […] To study the effect of inhibitors (e.g., the 2,4-substituted pyrimindinediamine compounds described herein) on the JAK1 and JAK3 kinases, human Ramos B cells are stimulated with human IL-4. Twenty to 24 hours post stimulation, cells are stained for upregulation of CD23 and analyzed using flow cytometry (FACS). […] An exemplary assay of this type is described in greater detail in Example 2.
B-cells stimulated with cytokine Interleukin-4 (IL-4) activate the JAK/Stat pathway through phosphorylation of the JAK family kinases, JAK-1 and JAK-3, which in turn phosphorylate and activate the transcription factor Stat-6. […] To study the effect of inhibitors on the JAK family kinases, human Ramos B cells are stimulated with human IL-4.
The Ramos B-cell line was acquired from ATCC (ATCC Catalog No. CRL-1596). The cells were cultured in RPMI 1640 (Cellgro, MediaTech, Inc., Herndon, Va., Cat No. 10-040-CM) with 10% fetal bovine serum (FBS), heat inactivated (JRH Biosciences, Inc, Lenexa, Kans., Cat No. 12106-500M) according to ATCC propagation protocol. Cells were maintained at a density of 3.5×10^5. The day before the experiment, Ramos B-cells were diluted to 3.5×10^5 cells/mL to ensure that they were in a logarithmic growth phase.
Cells were spun down and suspended in RPMI with 5% serum. 5×10^4 cells were used per point in a 96-well tissue culture plate. Cells were pre-incubated with compound or DMSO (Sigma-Aldrich, St. Louis, Mo., Cat No. D2650) vehicle control for 1 hour in a 37° C. incubator.
Cells were then stimulated with IL-4 (Peprotech Inc., Rocky Hill, N.J., Cat No. 200-04) for a final concentration of 50 units/mL for 20-24 hours. Cells were then spun down and stained with anti-CD23-PE (BD Pharmingen, San Diego, Calif., Cat No. 555711) and analyzed by FACS. Detection was performed using a BD LSR I System Flow Cytometer, purchased from Becton Dickinson Biosciences of San Jose, Calif.

A further experiment concerns Primary human T-cells. Kind of experiment: Primary Human T-Cell Proliferation Assay Stimulated with IL-2 (CellTiter-Glo). It is filed as cell-based. Conditions: IL-2, 72 hours, ATP quantitation (CellTiter-Glo), read-out: Example 3 (IC50, primary human T-cell proliferation stimulated with IL-2). The text has this: The activity of the active compounds of the invention may further be characterized by assaying the effect of the 2,4-pyrimidinediamine compounds described herein on the proliferative response of primary human T-cells. In this assay, primary human T-cells derived from peripheral blood and pre-activated through stimulation of the T-cell receptor and CD28, proliferate in culture in response to the cytokine Interleukin-2 (IL-2). This proliferative response is dependent on the activation of JAK1 and JAK3 tyrosine kinases, which phosphorylate and activate the transcription factor Stat-5. The primary human T-cells are incubated with the 2,4-pyrimidinediamine compounds in the presence of IL-2 for 72 hours and at the assay endpoint intracellular ATP concentrations are measured to assess cell viability. A reduction in cell proliferation compared to control conditions is indicative of inhibition of the JAK kinase pathway. An exemplary assay of this type is described in greater detail in Example 3.
Primary human T-cells derived from peripheral blood and pre-activated through stimulation of the T-cell receptor and CD28, proliferate in vitro in response to the cytokine Interleukin-2 (IL-2). This proliferative response is dependent on the activation of JAK-1 and JAK-3 tyrosine kinases, which phosphorylate and activate the transcription factor Stat-5.
Human primary T cells were prepared as follows. Whole blood was obtained from a healthy volunteer, mixed 1:1 with PBS, layered on to Ficoll Hypaque (Amersham Pharmacia Biotech, Piscataway, N.J., Catalog #17-1440-03) in 2:1 blood/PBS:ficoll ratio and centrifuged for 30 min at 4° C. at 1750 rpm. The lymphocytes at the serum: ficoll interface were recovered and washed twice with 5 volumes of PBS. The cells were resuspended in Yssel's medium (Gemini Bio-products, Woodland, Calif., Catalog #400-103) containing 40 U/mL recombinant IL2 (R and D Systems, Minneapolis, Minn., Catalog #202-IL (20 μg)) and seeded into a flask pre-coated with 1 μg/mL anti-CD3 (BD Pharmingen, San Diego, Calif., Catalog #555336) and […] (Immunotech, Beckman Coulter of Brea Calif., Catalog #IM1376). The primary T-cells were stimulated for 3-4 days, then transferred to a fresh flask and maintained in RPMI with 10% FBS and 40 U/mL IL-2.
Primary T-cells were washed twice with PBS to remove the IL-2 and resuspended in Yssel's medium at 2×10^6 cells/mL. 50 μL of cell suspension containing 80 U/mL IL-2 was added to each well of a flat bottom 96 well black plate. For the unstimulated control, IL-2 was omitted from the last column on the plate. Compounds were serially diluted in dimethyl sulfoxide (DMSO, 99.7% pure, cell culture tested, Sigma-Aldrich, St. Louis, Mo., Catalog No. D2650) from 5 mM in 3-fold dilutions, and then diluted 1:250 in Yssel's medium. 50 μL of 2× compound was added per well in duplicate and the cells were allowed to proliferate for 72 hours at 37° C.
Proliferation was measured using CellTiter-Glo® Luminescent Cell Viability Assay (Promega), which determines the number of viable cells in culture based on quantitation of the ATP present, as an indicator of metabolically active cells. The substrate was thawed and allowed to come to room temperature. After mixing the Cell Titer-Glo reagent and diluent together, 100 μL was added to each well. The plates were mixed on an orbital shaker for two minutes to induce lysis and incubated at room temperature for an additional ten minutes to allow the signal to equilibrate. Detection was performed using a Wallac Victor2 1420 multilabel counter purchased from Perkin Elmer, Shelton, Conn.

Read-outs that look alike come from different tables or passages of the source.

In the case of `Cc1cnc(Nc2cccc(S(N)(=O)=O)c2)nc1Nc1ccc2c(c1)C(NS(C)(=O)=O)CC2` (racemic) [VI-1, (+/−)-N2-(3-Aminosulfonylphenyl)-5-methyl-N4-[1-(methylsulfonyl)aminoindan-6-yl]-2,4-pyrimidinediamine], the IC50 in experiment [1] (Homo sapiens, Ramos) was found to be 0.312 µM.

Take `C#CCOc1ccc(Nc2nc(Nc3cccc(CS(N)(=O)=O)c3)ncc2F)cc1` [Compound I-3, N2-(3-Aminosulfonylmethylphenyl)-5-fluoro-N4-[4-(prop-2-ynyloxy)phenyl]-2,4-pyrimidinediamine]: the IC50 in the experiment with Primary human T-cells (Homo sapiens, T-cell, 72 h) was determined as 0.782 µM; in experiment [1] (Homo sapiens, Ramos) it was 0.0931 µM.

`CCCN(Cc1ccc(Nc2nc(Nc3ccc(CS(=O)(=O)NC)cc3)ncc2F)cc1)S(=O)(=O)CC` [Compound I-9, N4-[4-(N-ethylsulfonyl-N-propyl)aminomethyl]phenyl-5-fluoro-N2-(4-methylaminosulfonylmethyl)phenyl-2,4-pyrimidinediamine]: the values for the IC50 (in the experiment with Primary human T-cells; in experiment [1]) were 1.38 µM and 0.224 µM, respectively.

In the case of `CCS(=O)(=O)NCc1cccc(Nc2nc(Nc3ccc(CS(=O)(=O)NC)cc3)ncc2F)c1` [Compound I-12, N4-(3-ethylsulfonylaminomethyl)phenyl-5-fluoro-N2-(4-methylaminosulfonylmethyl)phenyl-2,4-pyrimidinediamine], the IC50 in the experiment on Primary human T-cells stood at 1.38 µM; in experiment [1] it was 0.314 µM.

For `C#CCOC(=O)NCc1ccc(Nc2nc(Nc3cccc(CS(N)(=O)=O)c3)ncc2F)cc1` [Compound I-14, N2-(3-Aminosulfonylmethylphenyl)-5-fluoro-N4-{4-[(prop-2-ynyloxy)carbonylaminomethyl]phenyl}-2,4-pyrimidinediamine], in experiment [1] (Homo sapiens, Ramos), the IC50 came out at 0.353 µM.

`CCS(=O)(=O)NCCc1ccc(Nc2nc(Nc3ccc(CS(=O)(=O)NC)cc3)ncc2F)cc1` [Compound I-15, N4-[4-(2-ethylsulfonylamino)ethyl]phenyl-5-fluoro-N2-(4-methylaminosulfonylmethyl)phenyl-2,4-pyrimidinediamine]: the IC50 in experiment [1] turned out to be 0.378 µM.

Take `Cn1nccc1NC(=O)Cc1cccc(Nc2nc(Nc3cccc(CS(N)(=O)=O)c3)ncc2F)c1` [Compound I-20, N2-[3-(Aminosulfonylmethylene)phenyl]-5-fluoro-N4-[(1-methylpyrazolyl-5-aminocarbonylmethylene)phenyl]-5-fluoro-2,4-pyrimidinediamine]: in experiment [1], the IC50 was 1.14 µM.

As for `CN1CCC(NS(=O)(=O)C=C2C=CC=C(Nc3nc(NC4=CC=CC(=CS(N)(=O)=O)C4)ncc3F)C2)CC1` [Compound I-21, N2-[3-(Aminosulfonylmethylene)phenyl]-5-fluoro-N4-[3-(1-methylpiperidin-4-ylaminosulfonylmethylene)phenyl]-2,4-pyrimidinediamine], the IC50 in experiment [1] (Homo sapiens, Ramos) was determined as 2.55 µM.

As to `NS(=O)(=O)c1ccc(Nc2ncc(F)c(Nc3cc4c(cc3F)CS(=O)(=O)N4)n2)cc1` [Compound V-1, N2-(4-aminosulfonyl)phenyl-5-fluoro-N4-(2,2-dioxo-5-fluoro-1,3-dihydrobenzo[c]isothiazol-6-yl)-2,4-pyrimidinediamine], the IC50 in experiment [1] (Homo sapiens, Ramos) is 12.4 µM.

With `NS(=O)(=O)c1cccc(Nc2ncc(F)c(Nc3cc4c(cc3F)CS(=O)(=O)N4)n2)c1` [Compound V-2, N2-(3-aminosulfonyl)phenyl-5-fluoro-N4-(2,2-dioxo-5-fluoro-1,3-dihydrobenzo[c]isothiazol-6-yl)-2,4-pyrimidinediamine], the IC50 in the experiment on Primary human T-cells (Homo sapiens, T-cell, 72 h) was 24.2 µM; in experiment [1] (Homo sapiens, Ramos), 14.8 µM.

With `Cc1ccc(Nc2ncc(F)c(Nc3cc4c(cc3F)CS(=O)(=O)N4)n2)cc1S(N)(=O)=O` [Compound V-3, N2-(3-aminosulfonyl-4-methyl)phenyl-5-fluoro-N4-(2,2-dioxo-5-fluoro-1,3-dihydrobenzo[c]isothiazol-6-yl)-2,4-pyrimidinediamine], the IC50 in experiment [1] (Homo sapiens, Ramos) is 12.9 µM.

Take `CC1(C)Oc2ccc(Nc3nc(Nc4ccc5c(c4)NS(=O)(=O)CO5)ncc3F)nc2NC1=O` [Compound V-4, N4-[2,2-dimethyl-3-oxo-4H-pyrid[1,4]oxazin-7-yl]-N2-[3,3-dioxo-1H-benzo[e][1,3,4]oxathiazin-7-yl]-5-fluoro-2,4-pyrimidinediamine]: the IC50 with Primary human T-cells (Homo sapiens, T-cell, 72 h) worked out at 1.72 µM; in experiment [1] (Homo sapiens, Ramos) it was 0.794 µM.

For `Cc1cnc(Nc2cccc(CNS(=O)(=O)C3CC3)c2)nc1Nc1ccc2c(n1)CCC(=O)O2` [Compound V-5], the IC50 in experiment [1] (Homo sapiens, Ramos) is 0.391 µM.

Regarding `Cc1cnc(Nc2ccc(CNS(=O)(=O)c3cccnc3)cc2)nc1Nc1ccc(CNS(=O)(=O)c2cccnc2)cc1` [II-3, N2,N4-bis[4-(pyrid-3-yl)sulfonylaminomethyl]phenyl-5-methyl-2,4-pyrimidinediamine], the IC50 in experiment [1] was determined as 0.322 µM.

In the case of `O=S(=O)(NCc1ccc(Nc2ncc(C(F)(F)F)c(Nc3ccc(CNS(=O)(=O)C4CC4)cc3)n2)cc1)C1CC1` [II-4, N2,N4-bis(4-cyclopropylsulfonylaminomethyl)phenyl-5-trifluoromethyl-2,4-pyrimidinediamine], the IC50 stood at 0.423 µM in the experiment with Primary human T-cells and 0.136 µM in experiment [1].

For the molecule `CC1(C)Oc2ccc(Nc3nc(Nc4ccc5c(c4)CN(S(N)(=O)=O)CC5)ncc3F)nc2NC1=O` [III-3, N2-(2-Aminosulfonyl-1,2,3,4-tetrahydroisoquinolin-7-yl)-N4-(2,2-dimethyl-3-oxo-4H-5-pyrid[1,4]oxazin-6-yl)-5-fluoro-2,4-pyrimidinediamine], the IC50 in the experiment with Primary human T-cells was found to be 0.269 µM; in experiment [1] it was 0.0729 µM.

As for `C#CCn1ccc2cc(Nc3nc(Nc4cccc(CS(N)(=O)=O)c4)ncc3F)ccc21` [IV-3, N2-(3-Aminosulfonylmethylphenyl)-5-fluoro-N4-[1-(propyn-3-yl)indol-5-yl]-2,4-pyrimidinediamine], the IC50 with Primary human T-cells (Homo sapiens, T-cell, 72 h) was determined as 1.98 µM; in experiment [1] (Homo sapiens, Ramos), 0.214 µM.

In the case of “N2-(3-Aminosulfonylmethylenephenyl)-5-fluoro-N4-[2-(2-N-morpholinoethylaminoacrbonyl)benzofuran-5-yl]-2,4-pyrimidinediamine [IV-5]”, the IC50 in experiment [1] worked out at 3.04 µM.
